The results in this text go back to patent US20060229305A1, “Tetrahydronaphthalene derivatives, process for their production and their use as anti-inflammatory agents” (priority 2005, published 2006).

Structures are written as SMILES.

Assay [1] has as its target T1, glucocorticoid receptor (GR) (Homo sapiens, UniProt P04150).
T1 construct: made in house; host or cells: Sf9 cells infected with recombinant baculovirus (cytosol preparation)
T1 sequence (P04150 1-777): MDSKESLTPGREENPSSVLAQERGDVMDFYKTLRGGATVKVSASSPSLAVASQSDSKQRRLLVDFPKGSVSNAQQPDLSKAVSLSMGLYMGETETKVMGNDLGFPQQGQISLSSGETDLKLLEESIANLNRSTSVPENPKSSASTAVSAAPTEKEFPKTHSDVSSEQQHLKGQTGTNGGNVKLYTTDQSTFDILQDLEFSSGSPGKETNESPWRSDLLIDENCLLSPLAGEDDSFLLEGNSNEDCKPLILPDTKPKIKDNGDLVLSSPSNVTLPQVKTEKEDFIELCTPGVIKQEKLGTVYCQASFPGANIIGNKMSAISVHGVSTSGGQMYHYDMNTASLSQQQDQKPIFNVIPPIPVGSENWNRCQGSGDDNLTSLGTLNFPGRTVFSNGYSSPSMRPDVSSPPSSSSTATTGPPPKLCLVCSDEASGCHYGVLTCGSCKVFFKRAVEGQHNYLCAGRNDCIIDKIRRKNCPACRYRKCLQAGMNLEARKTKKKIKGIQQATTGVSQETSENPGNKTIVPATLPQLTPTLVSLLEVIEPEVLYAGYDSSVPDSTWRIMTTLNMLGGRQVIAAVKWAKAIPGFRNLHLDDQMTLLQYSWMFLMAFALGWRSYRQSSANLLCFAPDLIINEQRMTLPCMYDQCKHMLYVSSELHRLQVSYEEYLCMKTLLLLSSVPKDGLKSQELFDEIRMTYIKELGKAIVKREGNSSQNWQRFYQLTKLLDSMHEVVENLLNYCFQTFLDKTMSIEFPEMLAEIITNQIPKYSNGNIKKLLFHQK
The assay can be described thus: Binding to the glucocorticoid receptor, recombinant receptor in Sf9 cytosol, vs [3H]-dexamethasone. Conditions: cytosol of Sf9 cells, [3H]-dexamethasone as reference. The source says: (§1) The binding of the substances to the glucocorticoid receptor (GR) and other steroid-hormone receptors (mineral corticoid receptor (MR), progesterone receptor (PR) and androgen receptor (AR)) is examined with the aid of recombinantly produced receptors. Cytosol preparations of Sf9 cells, which had been infected with recombinant baculoviruses that code for the GR, are used for the binding studies. In comparison to the reference substance [^3H]-dexamethasone, the substances show a high affinity to the GR.

Assay [2] has as its system cytokine IL-8 secretion, human monocyte cell line THP-1. The assay can be described thus: Inhibition of LPS-triggered IL-8 secretion in THP-1 cells (ELISA). Type of assay: cell-based. The method, then:
The concentration of the cytokines was determined in the supernatant by means of commercially available ELISA kits.
Background: ELISA stands for enzyme-linked immunosorbent assay.

Assay [3] deals with T2, progesterone receptor (PR) (Homo sapiens, UniProt P06401).
T2 construct: made in house
T2 sequence (P06401 1-933): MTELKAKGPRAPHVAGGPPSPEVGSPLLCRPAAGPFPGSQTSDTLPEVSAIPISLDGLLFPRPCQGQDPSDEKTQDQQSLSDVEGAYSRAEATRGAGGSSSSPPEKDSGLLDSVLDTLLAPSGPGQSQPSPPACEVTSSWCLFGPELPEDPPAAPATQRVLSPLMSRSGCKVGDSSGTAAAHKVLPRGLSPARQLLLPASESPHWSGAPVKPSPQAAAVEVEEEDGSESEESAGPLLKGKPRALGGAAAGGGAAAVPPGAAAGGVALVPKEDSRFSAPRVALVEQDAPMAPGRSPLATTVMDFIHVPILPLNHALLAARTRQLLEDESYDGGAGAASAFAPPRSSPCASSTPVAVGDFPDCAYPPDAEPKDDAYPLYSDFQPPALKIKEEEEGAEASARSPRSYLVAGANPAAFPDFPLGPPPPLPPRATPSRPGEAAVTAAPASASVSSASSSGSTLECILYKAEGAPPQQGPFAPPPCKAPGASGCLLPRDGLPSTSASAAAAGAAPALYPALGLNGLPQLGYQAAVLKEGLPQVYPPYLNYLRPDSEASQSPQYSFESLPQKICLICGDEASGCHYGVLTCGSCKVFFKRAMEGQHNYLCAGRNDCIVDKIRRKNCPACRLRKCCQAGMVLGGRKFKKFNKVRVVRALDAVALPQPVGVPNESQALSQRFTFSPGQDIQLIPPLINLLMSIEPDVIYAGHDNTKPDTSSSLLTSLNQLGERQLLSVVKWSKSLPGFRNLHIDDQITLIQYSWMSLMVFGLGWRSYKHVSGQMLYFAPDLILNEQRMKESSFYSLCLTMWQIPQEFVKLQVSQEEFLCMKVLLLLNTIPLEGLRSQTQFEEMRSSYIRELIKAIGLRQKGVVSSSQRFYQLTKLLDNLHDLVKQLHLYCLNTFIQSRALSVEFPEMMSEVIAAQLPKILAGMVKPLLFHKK
Nature of the assay: Binding to the progesterone receptor, recombinantly produced receptor.
Source text: as §1

For `Cc1ncc2c(NC3c4ccc(F)c(O)c4C(C)C(C)C3(O)C(F)(F)F)cc(F)cc2n1` (racemic) [Example 3, 2-Fluoro-5-[(7-fluoro-2-methylquinazolin-5-yl)amino]-5,6,7,8-tetrahydro-7,8-dimethyl-6-(trifluoromethyl)naphthalene-1,6-diol], the IC50 in assay [1] is 36 nM; in assay [2] (Homo sapiens, LPS-triggered IL-8 secretion, THP-1, ELISA of supernatant, read-out: IC50(IL8)) it was 130 nM; in assay [3], more than 1000 nM. Also, the “efficiency relative to [3H]-dexamethasone as a standard” value in assay [2] (IL-8 inhibition, THP-1, LPS) is on record as 80%.

As usually defined, the IC50 is the concentration that inhibits the measured activity by half.
